Test results: patent publication US5010005A, “Bio-oxidation of high alcohols in non-aqueous reaction media” (priority 1989, dated 1991)
Values after ≈ are worked out from the molar mass of the structure shown. Like-named read-outs stand apart in the source and are kept apart here.

Tests used:
[1] = Partitioning of benzyl alcohol and benzaldehyde between 0.1 M phosphate buffer and solvent; assay type: physicochemical
Protocol: The partitioning of benzyl alcohol and benzaldehyde between 0.1 M phosphate buffer and each solvent used were measured as follows: benzyl alcohol (10 g/L) and benzaldehyde (10 g/L) were dissolved in each of the solvents of interest. Ten millilitres of each solvent were then dispensed into a test tube containing 10 ml of 0.1 M phosphate buffer (pH 8). The tubes were capped, vortexed, and the mixture was allowed to equilibrate for 1 hr at 30° C. Both phases were then assayed for benzaldehyde and benzyl alcohol as described above. […]

Solubility in water = assay type: physicochemical
alcohol oxidase = biological target: T1, alcohol oxidase (Komagataella phaffii, UniProt P04842); assay: Inhibition of alcohol oxidase by benzaldehyde; assay type: biochemical, Pichia pastoris
T1 construct: purchased Provesta Corp. (Bartlesville, Oklahoma)
T1 sequence (P04842 2-663 limits assumed): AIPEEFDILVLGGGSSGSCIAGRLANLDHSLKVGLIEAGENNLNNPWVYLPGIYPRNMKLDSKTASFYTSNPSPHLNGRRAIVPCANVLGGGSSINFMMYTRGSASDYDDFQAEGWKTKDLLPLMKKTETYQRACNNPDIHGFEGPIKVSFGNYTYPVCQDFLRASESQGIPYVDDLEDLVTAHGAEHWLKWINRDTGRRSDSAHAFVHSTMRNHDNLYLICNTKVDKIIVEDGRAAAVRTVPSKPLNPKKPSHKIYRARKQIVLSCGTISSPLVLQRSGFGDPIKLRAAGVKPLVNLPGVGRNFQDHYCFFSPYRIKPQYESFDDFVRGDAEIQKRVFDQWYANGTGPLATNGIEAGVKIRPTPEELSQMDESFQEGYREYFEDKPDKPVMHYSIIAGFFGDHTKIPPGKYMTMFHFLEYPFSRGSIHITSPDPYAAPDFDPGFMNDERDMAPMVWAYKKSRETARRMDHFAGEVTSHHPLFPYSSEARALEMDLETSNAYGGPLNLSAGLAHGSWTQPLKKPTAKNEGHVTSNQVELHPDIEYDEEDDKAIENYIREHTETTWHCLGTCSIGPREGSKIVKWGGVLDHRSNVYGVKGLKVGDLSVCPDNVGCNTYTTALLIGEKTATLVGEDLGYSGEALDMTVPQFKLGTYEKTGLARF
Source text: Similar potent inhibition of yeast alcohol dehydrogenase by aliphatic and aromatic aldehydes including benzaldehyde has been reported (W.R. Bowen et al, J. Chem. Tech. Biotechnol. 36: 191-196, 1986). In two phase systems, the degree to which alcohol oxidase is inhibited by benzaldehyde is controlled by the concentration of the inhibitor, the concentration of the enzyme, the solvent chosen as a reaction fluid, and on the volumetric ratio of the two phases present. The effect of the first two factors is obvious, however the latter two parameters play an important role in determining the effective concentration of the inhibitor; that concentration to which the biocatalyst is exposed, potentially causing inhibition. Benzaldehyde partitions differently between the two phases depending on the solvent chosen. For example, using toluene as an extractant benzaldehyde was efficiently stripped from the aqueous phase (Table 2) and was, therefore, less able to inhibit alcohol oxidase. It is possible that this would result in improved yields over extended reaction times, despite the sacrifice in terms of initial reaction rate.

SMILES: O=Cc1ccccc1 [benzaldehyde]
- Partition Coefficient (Corg /Caq) ([1]; Ether / 0.1 M phosphate buffer pH 8, 30° C.): 69.4
- Partition Coefficient (Corg /Caq) ([1]; Ethylacetate / 0.1 M phosphate buffer pH 8, 30° C.): 62.0
- Partition Coefficient (Corg /Caq) ([1]; Hexane / 0.1 M phosphate buffer pH 8, 30° C.): 15.4
- Partition Coefficient (Corg /Caq) ([1]; Toluene / 0.1 M phosphate buffer pH 8, 30° C.): 100
- solubility (Solubility in water): ~3000 µg/mL (≈ 28.3 mM)
- Inhibition of alcohol oxidase (alcohol oxidase): very strongly inhibited
- Inhibition of alcohol oxidase (alcohol oxidase; listed as Benzaldehyde): extremely potent inhibitor
